Source: PubChem BioAssay AID1963827 (Molecular Pharmacology Branch, DTP, NCI, 2024)

Tested on: 994946-033-R-J1-PDC complex spheroid viability
Experiment: Anticancer human tumor 994946-033-R-J1-PDC patient-derived melanoma cell line growth inhibition [POLQ]
Details: for IC50: curve of first compound; for viability, T/C: stronger effect = lower value
How it was run: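 Patient-derived tumour cells were co-cultured with HUVEC and mesenchymal stem cells as multicellular spheroids at 37 °C. They were treated with POLQ inhibitors (novobiocin, ART-558, RP6685) alone or combined with other agents. Top concentrations were at or near clinical Cmax (otherwise 10 microM; SN-38 at 1 microM), decreasing in half-log steps.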

[1] = second compound 0.0316 µM, first compound 0.0316 µM
[2] = second compound 0.0316 µM, first compound 0.1 µM
[3] = second compound 0.0316 µM, first compound 0.316 µM
[4] = second compound 0.0316 µM, first compound 1 µM
[5] = second compound 0.0316 µM, first compound 3.16 µM
[6] = second compound 0.0316 µM, first compound 10 µM
[7] = second compound 0.1 µM, first compound 0.0316 µM
[8] = second compound 0.1 µM, first compound 0.1 µM
[9] = second compound 0.1 µM, first compound 0.316 µM
[10] = second compound 0.1 µM, first compound 1 µM
[11] = second compound 0.1 µM, first compound 3.16 µM
[12] = second compound 0.1 µM, first compound 10 µM
[13] = second compound 0.316 µM, first compound 0.0316 µM
[14] = second compound 0.316 µM, first compound 0.1 µM
[15] = second compound 0.316 µM, first compound 0.316 µM
[16] = second compound 0.316 µM, first compound 1 µM
[17] = second compound 0.316 µM, first compound 3.16 µM
[18] = second compound 0.316 µM, first compound 10 µM
[19] = second compound 1 µM, first compound 0.0316 µM
[20] = second compound 1 µM, first compound 0.1 µM
[21] = second compound 1 µM, first compound 0.316 µM
[22] = second compound 1 µM, first compound 1 µM
[23] = second compound 1 µM, first compound 3.16 µM
[24] = second compound 1 µM, first compound 10 µM
[25] = second compound 3.16 µM, first compound 0.0316 µM
[26] = second compound 3.16 µM, first compound 0.1 µM
[27] = second compound 3.16 µM, first compound 0.316 µM
[28] = second compound 3.16 µM, first compound 1 µM
[29] = second compound 3.16 µM, first compound 3.16 µM
[30] = second compound 3.16 µM, first compound 10 µM
[31] = second compound 10 µM, first compound 0.0316 µM
[32] = second compound 10 µM, first compound 0.1 µM
[33] = second compound 10 µM, first compound 0.316 µM
[34] = second compound 10 µM, first compound 1 µM
[35] = second compound 10 µM, first compound 3.16 µM
[36] = second compound 10 µM, first compound 10 µM
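Also: spheroids exposed to drugs for 7 days.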
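For viability, T/C in this document: 100% = DMSO vehicle treated spheroids.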

How did the IC50 (second compound 0.0316 µM) turn out when `COc1cc(C2c3cc4c(cc3C(OC3OC5COC(C)OC5C(O)C3O)C3COC(=O)C23)OCO4)cc(OC)c1O` (stereo unspecified) + Nc1ccc(C#CCN(C(=O)Cc2ncc(C(F)(F)F)cc2C(F)(F)F)c2ccc(F)cc2)nn1 was run?
The IC50 was 725 nM.

And the IC50 (second compound 0.1 µM)?
The IC50 was 348 nM.

And the IC50 (second compound 0.316 µM)?
Its IC50 is 363 nM.

And the IC50 (second compound 1 µM)?
The IC50 was 395 nM.

What about the IC50 (second compound 3.16 µM) of the same compound?
Its IC50 is 369 nM.

What about the IC50 (second compound 10 µM) of the same compound?
The IC50 was 879 nM.

What about the viability, T/C [1] of the same compound?
Its viability, T/C is 70.3%.

What about the viability, T/C [2] of the same compound?
The viability, T/C was 67.4%.

And the viability, T/C [3]?
Its viability, T/C is 68.8%.

What about the viability, T/C [4] of the same compound?
Its viability, T/C is 42%.

And the viability, T/C [5]?
The viability, T/C was 19.9%.

What about the viability, T/C [6] of the same compound?
The viability, T/C was 8.78%.

And the viability, T/C [7]?
The viability, T/C was 86.1%.

And the viability, T/C [8]?
Its viability, T/C is 73.3%.

What about the viability, T/C [9] of the same compound?
Its viability, T/C is 42.3%.

And the viability, T/C [10]?
The viability, T/C was 43%.

What about the viability, T/C [11] of the same compound?
Its viability, T/C is 16.5%.

And the viability, T/C [12]?
The viability, T/C was 6.05%.

What about the viability, T/C [13] of the same compound?
The viability, T/C was 87.1%.

What about the viability, T/C [14] of the same compound?
Its viability, T/C is 69.9%.

What about the viability, T/C [15] of the same compound?
Its viability, T/C is 54%.

What about the viability, T/C [16] of the same compound?
Its viability, T/C is 32.4%.

And the viability, T/C [17]?
The viability, T/C was 20.6%.

And the viability, T/C [18]?
Its viability, T/C is 9.78%.

And the viability, T/C [19]?
The viability, T/C was 111%.

What about the viability, T/C [20] of the same compound?
Its viability, T/C is 77%.

And the viability, T/C [21]?
The viability, T/C was 55.1%.

And the viability, T/C [22]?
Its viability, T/C is 35.4%.

And the viability, T/C [23]?
Its viability, T/C is 17.9%.

And the viability, T/C [24]?
Its viability, T/C is 10.3%.

What about the viability, T/C [25] of the same compound?
The viability, T/C was 84.8%.

What about the viability, T/C [26] of the same compound?
Its viability, T/C is 70.5%.

And the viability, T/C [27]?
The viability, T/C was 48%.

What about the viability, T/C [28] of the same compound?
The viability, T/C was 41.3%.

And the viability, T/C [29]?
Its viability, T/C is 15.3%.

What about the viability, T/C [30] of the same compound?
Its viability, T/C is 5.78%.

And the viability, T/C [31]?
Its viability, T/C is 77.2%.

What about the viability, T/C [32] of the same compound?
The viability, T/C was 70.4%.

What about the viability, T/C [33] of the same compound?
The viability, T/C was 58.7%.

What about the viability, T/C [34] of the same compound?
The viability, T/C was 53.3%.

What about the viability, T/C [35] of the same compound?
Its viability, T/C is 14.5%.

What about the viability, T/C [36] of the same compound?
Its viability, T/C is 7.34%.

For `CCCS(=O)(=O)Nc1ccc(F)c(C(=O)c2c[nH]c3ncc(-c4ccc(Cl)cc4)cc23)c1F` + Cc1cccc(N(C)C(=O)C2C(O)CCN2c2nc(C)cc(C(F)(F)F)c2C#N)c1, which IC50 (second compound 0.0316 µM) is on record?
The IC50 was 6380 nM.

What about the IC50 (second compound 0.1 µM) of the same compound?
The IC50 was 6170 nM.

What about the IC50 (second compound 0.316 µM) of the same compound?
The IC50 was 6510 nM.

And the IC50 (second compound 1 µM)?
The IC50 was 4950 nM.

What about the IC50 (second compound 3.16 µM) of the same compound?
The IC50 was 6020 nM.

And the IC50 (second compound 10 µM)?
The IC50 was 5540 nM.

And the viability, T/C [1]?
Its viability, T/C is 67.5%.

And the viability, T/C [2]?
The viability, T/C was 102%.

What about the viability, T/C [3] of the same compound?
The viability, T/C was 94.3%.

And the viability, T/C [4]?
Its viability, T/C is 81.1%.

What about the viability, T/C [5] of the same compound?
Its viability, T/C is 85.7%.

And the viability, T/C [6]?
The viability, T/C was 27.1%.

And the viability, T/C [7]?
Its viability, T/C is 91.3%.

And the viability, T/C [8]?
The viability, T/C was 110%.

What about the viability, T/C [9] of the same compound?
Its viability, T/C is 67.4%.

What about the viability, T/C [10] of the same compound?
The viability, T/C was 115%.

And the viability, T/C [11]?
Its viability, T/C is 88.2%.

And the viability, T/C [12]?
Its viability, T/C is 22.4%.

And the viability, T/C [13]?
The viability, T/C was 78.7%.

What about the viability, T/C [14] of the same compound?
Its viability, T/C is 101%.

And the viability, T/C [15]?
Its viability, T/C is 95%.

What about the viability, T/C [16] of the same compound?
Its viability, T/C is 104%.

What about the viability, T/C [17] of the same compound?
Its viability, T/C is 99.3%.

What about the viability, T/C [18] of the same compound?
Its viability, T/C is 22.9%.

What about the viability, T/C [19] of the same compound?
The viability, T/C was 64.8%.

What about the viability, T/C [20] of the same compound?
The viability, T/C was 71.4%.

And the viability, T/C [21]?
Its viability, T/C is 81.6%.

And the viability, T/C [22]?
Its viability, T/C is 93%.

And the viability, T/C [23]?
The viability, T/C was 63.7%.

What about the viability, T/C [24] of the same compound?
The viability, T/C was 20.9%.

And the viability, T/C [25]?
The viability, T/C was 103%.

What about the viability, T/C [26] of the same compound?
Its viability, T/C is 76.3%.

What about the viability, T/C [27] of the same compound?
Its viability, T/C is 97.3%.

And the viability, T/C [28]?
The viability, T/C was 84.9%.

What about the viability, T/C [29] of the same compound?
The viability, T/C was 95.3%.

What about the viability, T/C [30] of the same compound?
Its viability, T/C is 17.4%.

What about the viability, T/C [31] of the same compound?
Its viability, T/C is 88.4%.

And the viability, T/C [32]?
The viability, T/C was 84.6%.

And the viability, T/C [33]?
Its viability, T/C is 112%.

And the viability, T/C [34]?
Its viability, T/C is 95.6%.

And the viability, T/C [35]?
The viability, T/C was 80.9%.

And the viability, T/C [36]?
The viability, T/C was 17.1%.

Which results are given for `CC[C@@]1(O)C(=O)OCc2c1cc1n(c2=O)Cc2cc3c(CN(C)C)c(O)ccc3nc2-1` + COC1C(OC(N)=O)C(O)C(Oc2ccc3c(O)c(NC(=O)c4ccc(O)c(CC=C(C)C)c4)c(=O)oc3c2C)OC1(C)C?
IC50 (second compound 0.0316 µM): 21.2 nM; IC50 (second compound 0.1 µM): 19.8 nM; IC50 (second compound 0.316 µM): 21.4 nM; IC50 (second compound 1 µM): 20.5 nM; IC50 (second compound 3.16 µM): 17.7 nM; IC50 (second compound 10 µM): 20.2 nM; viability, T/C (second compound 0.0316 µM, first compound 0.000316 µM): 107%; viability, T/C (second compound 0.0316 µM, first compound 0.001 µM): 69.1%; viability, T/C (second compound 0.0316 µM, first compound 0.00316 µM): 117%; viability, T/C (second compound 0.0316 µM, first compound 0.01 µM): 77.8%; viability, T/C [1]: 34.3%; viability, T/C [2]: 7.91%; viability, T/C (second compound 0.1 µM, first compound 0.000316 µM): 91.4%; viability, T/C (second compound 0.1 µM, first compound 0.001 µM): 101%; viability, T/C (second compound 0.1 µM, first compound 0.00316 µM): 109%; viability, T/C (second compound 0.1 µM, first compound 0.01 µM): 79.2%; viability, T/C [7]: 29.4%; viability, T/C [8]: 8%; viability, T/C (second compound 0.316 µM, first compound 0.000316 µM): 96.6%; viability, T/C (second compound 0.316 µM, first compound 0.001 µM): 99.6%; viability, T/C (second compound 0.316 µM, first compound 0.00316 µM): 91.3%; viability, T/C (second compound 0.316 µM, first compound 0.01 µM): 86%; viability, T/C [13]: 31.5%; viability, T/C [14]: 11.3%; viability, T/C (second compound 1 µM, first compound 0.000316 µM): 118%; viability, T/C (second compound 1 µM, first compound 0.001 µM): 107%; viability, T/C (second compound 1 µM, first compound 0.00316 µM): 100%; viability, T/C (second compound 1 µM, first compound 0.01 µM): 81.5%; viability, T/C [19]: 30.4%; viability, T/C [20]: 15.1%; viability, T/C (second compound 3.16 µM, first compound 0.000316 µM): 92.7%; viability, T/C (second compound 3.16 µM, first compound 0.001 µM): 86.5%; viability, T/C (second compound 3.16 µM, first compound 0.00316 µM): 77%; viability, T/C (second compound 3.16 µM, first compound 0.01 µM): 73.1%; viability, T/C [25]: 28%; viability, T/C [26]: 10.2%; viability, T/C (second compound 10 µM, first compound 0.000316 µM): 85.5%; viability, T/C (second compound 10 µM, first compound 0.001 µM): 86.9%; viability, T/C (second compound 10 µM, first compound 0.00316 µM): 85.4%; viability, T/C (second compound 10 µM, first compound 0.01 µM): 81%; viability, T/C [31]: 30.3%; viability, T/C [32]: 8.24%
